Measurements as given in article PMC4202157, “Amphipathic tail-anchoring peptide is a promising therapeutic agent for prostate cancer treatment” (Oncotarget, 2014).
“Also recorded” adds a separate entry of the source. Each block holds one compound with its values, some of them ahead of it. Bridge positions count the residues as written; N and C are the ends. Peptide text beside a SMILES is read from it.

Assays:
[1] = Precipitation / aggregation of peptide in cell culture medium; assay type: physicochemical; settings: for Precipitation in normal culture medium: 200 μM peptide added to DU145 cells in normal culture medium, 37 °C, 24 hours incubation, microscopy
[2] = test system: DU145 xenograft; test: DU145 xenograft in nude mice; assay type: in vivo, NCR nude mice
Description: (§1) Handling of animals was performed in accordance with protocols approved by the Institutional Animal Care and Use Committee (IACUC) of the Ohio State University. Five week-old NCR nude mice (Taconic Farms, Germantown, NY) were implanted subcutaneously in both flanks with 2 ×10^6 DU145 or PC-3 cells. After tumors reached 4 to 7 mm in diameter (about 9~14 days after implantation), the mice were randomly divided into two groups so that both the mean and the variance of the tumor diameters are of no significant difference among the groups prior to treatment. The ATAP-iRGD-M8 peptide was injected through tail vein once every two days during the whole procedure. Tumor volume was measured by a digital caliper (Thermo Fisher Scientific, Waltham, MA). Tumor volume was determined from the orthogonal dimensions (length, width) using the formula: tumor volume = 1/2(length × width^2). According to the IACUC guideline, the experiments will be terminated when tumors reached 1.5 cm in diameter. At the end of experiment, mice were sacrificed and xenografts were removed and weighted. For toxicological evaluation of peptide treatments, mouse body weights were measured every four days. […]

[3] = test system: kidney, heart, liver, lung and spleen; test: H&E organ pathology in xenograft nude mice; assay type: in vivo, NCR nude mice; settings: xenograft nude mice after peptide treatment, vs control
Description: as §1

[4] = test system: DU145 cells; test: Live-cell confocal imaging of peptide uptake and mitochondria localization; assay type: cell-based; settings: 2 μM Dylight488-labeled peptide, Mito Tracker Red, 50 μM Q-VD-OPh, confocal microscopy
Description: ATAP-iRGD and ATAP-iRGD-M8 peptides were labeled with an amine-reactive DyLight488 fluorophore (Pierce Biotechnology, Rockford, USA) according to the manufacturer's instructions. DU145 cells were cultured in the presence of 2 μM Dylight488-labeled ATAP-iRGD or ATAP-iRGD-M8 plus 50 nM Mito Tracker Red (Molecular Probes Inc., Eugene, OR). 50 μM Q-VD-OPh was added to the culture medium in order to prevent cell apoptosis. Sample images were taken by BioRad 2100 Radiance laser scanning confocal microscope (Bio-Rad Laboratories, Hercules, CA) with a 60×, 1.3NA oil immersion objective (Nikon Instruments Inc., Melville, NY).

[5] = test system: PC-3 xenograft; test: PC-3 xenograft in nude mice; assay type: in vivo, NCR nude mice; settings: tail vein injection once every two days
Description: as §1

[6] = test system: DU145 cells; test: MTT cell viability assay, DU145 cells; assay type: cell-based
Description: (§2) The human esophageal squamous carcinoma cell line KYSE-150 was provided by Dr. Chung S. Yang (Rutgers University, Piscataway, NJ)[41, 42]. DU145, LNCaP, PC-3, K562, U87 and MDA-MB-231 cells were purchased from American Type Culture Collection and cultured with designated medium, supplemented with 10% fetal bovine serum, 100 unit/ml penicillin, and 100 μg/ml streptomycin. Cell viability was determined by MTT assay. Cells were plated at 1,000-1,500 cells per well in a 96-well plate and then treated with indicated amounts of ATAP peptides for 48 hours. Then, 20 μl (5 mg/ml in PBS) MTT [3-(4,5-dimethylthiazol-2-yl)-2,5-diphenyltetrazolium bromide] (Sigma Chemical Co., St. Louis, Mo.) was added to each well. After another 4 hours, 150 μL DMSO was added to dissolve formazan crystals in each well, and the absorbance were recorded at 570 nm.

[7] = test system: SV129 mice; test: Repetitive intravenous injection toxicity in SV129 mice; assay type: in vivo
Description: For further evaluation of the in vivo toxic effect of ATAP-iRGD, repetitive injections of ATAP-iRGD into the immune intact SV129 mice were conducted.

[8] = test system: MDA-MB-231 breast adenocarcinoma cells; assay type: cell-based; settings: 48 h
Description: as §2

[9] = test system: PC-3 cells; assay type: cell-based; settings: 48 h
Description: as §2

[10] = test system: LNCaP cells; assay type: cell-based; settings: 48 h
Description: as §2

[11] = test system: U87 glioblastoma cells; assay type: cell-based; settings: 48 h
Description: as §2

[12] = test system: KYSE-150 esophageal squamous carcinoma cells; assay type: cell-based, human; settings: 48 h
Description: as §2

[13] = test system: K562 cells; assay type: cell-based, human; settings: 48 h
Description: as §2

Precipitation in normal culture medium [1]: no precipitation
Concentration at which no precipitation was observed ([1]; normal cell culture medium, neutral pH, prolonged incubation): above 200 μM
H&E pathology of kidney, heart, liver, lung and spleen [3]: no obvious changes
Compound: Ac-KKFEPKSGWMTFLEVTGKIAEMLSLLKQYCRGDKGPDC-NH2 (disulfide 30-38 (inferred)) [ATAP-iRGD-M8, ATAP-iRGD with one more Lys, acetylated and amidated termini]
DU145 xenograft volume vs saline ([2]; 21 mg/kg via tail vein once every two days, n=6 treated, n=9 saline): significantly smaller
DU-145 xenograft weight at end of experiment ([2]; xenografts dissected and weighted, mean±SEM, P<0.05 (Fig. S2)): significantly suppressed DU-145 tumor growth
Cell uptake and mitochondria localization [4]: clear mitochondria target pattern
PC-3 xenograft tumor growth vs saline [5]: significant suppression of tumor growth

Compound: CC[C@H](C)[C@H](NC(=O)[C@H](CCCCN)NC(=O)CNC(=O)[C@@H](NC(=O)[C@@H](NC(=O)[C@H](CCC(=O)O)NC(=O)[C@H](CC(C)C)NC(=O)[C@H](Cc1ccccc1)NC(=O)[C@@H](NC(=O)[C@H](CCSC)NC(=O)[C@H](Cc1c[nH]c2ccccc12)NC(=O)CNC(=O)[C@H](CO)NC(=O)[C@H](CCCCN)NC(=O)[C@@H]1CCCN1C(=O)[C@H](CCC(=O)O)NC(=O)[C@H](Cc1ccccc1)NC(=O)[C@@H](N)CCCCN)[C@@H](C)O)C(C)C)[C@@H](C)O)C(=O)N[C@@H](C)C(=O)N[C@@H](CCC(=O)O)C(=O)N[C@@H](CCSC)C(=O)N[C@@H](CC(C)C)C(=O)N[C@@H](CO)C(=O)N[C@@H](CC(C)C)C(=O)N[C@@H](CC(C)C)C(=O)N[C@@H](CCCCN)C(=O)N[C@@H](CCC(N)=O)C(=O)N[C@@H](Cc1ccc(O)cc1)C(=O)N[C@H]1CSSC[C@@H](C(=O)O)NC(=O)[C@H](CC(=O)O)NC(=O)[C@@H]2CCCN2C(=O)CNC(=O)[C@H](CCCCN)NC(=O)[C@H](CC(=O)O)NC(=O)CNC(=O)[C@H](CCCNC(=N)N)NC1=O [ATAP-iRGD] (H-KFEPKSGWMTFLEVTGKIAEMLSLLKQYCRGDKGPDC-OH; disulfide 29-37)
IC50 ([6]; 48 h): 1.6 ± 0.5 µM
Signs of toxicity on repetitive injection ([7]; immune intact SV129 mice, repetitive intravenous injections): no visible signs or symptoms of toxicity
H&E pathology of kidney, heart, liver, lung and spleen ([7]; mouse, in vivo, iv): no significant pathological abnormalities
IC50 [8]: 5.9 ± 1.1 µM
IC50 [9]: 9.2 ± 1.6 µM
IC50 [10]: 7.1 ± 1.7 µM
IC50 [11]: 10.3 ± 2.6 µM
IC50 [12]: 4.4 ± 0.5 µM
IC50 [13]: 107 ± 41 µM

Compound: Ac-KFEPKSGWMTFLEVTGKIAEMLSLLKQYCRGDKGPDC-NH2 (disulfide 29-37 (inferred)) [Mutant M7, ATAP-iRGD with acetylated amino terminus and amidated carboxyl terminus]
Precipitation in normal culture medium [1]: precipitate; also recorded: pronounced precipitation

Compound: CC[C@H](C)[C@H](NC(=O)[C@H](CCCCN)NC(=O)CNC(=O)[C@@H](NC(=O)[C@@H](NC(=O)[C@H](CCC(=O)O)NC(=O)[C@H](CC(C)C)NC(=O)[C@H](Cc1ccccc1)NC(=O)[C@@H](NC(=O)[C@H](CCSC)NC(=O)[C@H](Cc1c[nH]c2ccccc12)NC(=O)CNC(=O)[C@H](CO)NC(=O)[C@H](CCCCN)NC(=O)[C@@H]1CCCN1C(=O)[C@H](CCC(=O)O)NC(=O)[C@H](Cc1ccccc1)NC(=O)[C@@H](N)CCCCN)[C@@H](C)O)C(C)C)[C@@H](C)O)C(=O)N[C@@H](C)C(=O)N[C@@H](CCC(=O)O)C(=O)N[C@@H](CCSC)C(=O)N[C@@H](CC(C)C)C(=O)N[C@@H](CO)C(=O)N[C@@H](CC(C)C)C(=O)N[C@@H](CC(C)C)C(=O)N[C@@H](CC(C)C)C(=O)N[C@@H](CCC(N)=O)C(=O)N[C@@H](Cc1ccc(O)cc1)C(=O)N[C@H]1CSSC[C@@H](C(=O)O)NC(=O)[C@H](CC(=O)O)NC(=O)[C@@H]2CCCN2C(=O)CNC(=O)[C@H](CCCCN)NC(=O)[C@H](CC(=O)O)NC(=O)CNC(=O)[C@H](CCCNC(=N)N)NC1=O [Mutant M4] (H-KFEPKSGWMTFLEVTGKIAEMLSLLLQYCRGDKGPDC-OH; disulfide 29-37)
Cytotoxic activity in DU145 cells, in words ([6]; MTT assay, 48 hours, unconjugated ATAP tested at 0.01 – 100 μM): complete abolishment of the cytotoxic activity
